Data as given in patent publication US8207193B2 (priority 2006, dated 2012).

Biological target: human muscarinic acetylcholine M3 receptor (M3-ACh) (Homo sapiens, UniProt P20309)
Assay: biochemical
Format: binding

human muscarinic acetylcholine M3 receptor (M3-ACh), sequence (P20309 whole entry): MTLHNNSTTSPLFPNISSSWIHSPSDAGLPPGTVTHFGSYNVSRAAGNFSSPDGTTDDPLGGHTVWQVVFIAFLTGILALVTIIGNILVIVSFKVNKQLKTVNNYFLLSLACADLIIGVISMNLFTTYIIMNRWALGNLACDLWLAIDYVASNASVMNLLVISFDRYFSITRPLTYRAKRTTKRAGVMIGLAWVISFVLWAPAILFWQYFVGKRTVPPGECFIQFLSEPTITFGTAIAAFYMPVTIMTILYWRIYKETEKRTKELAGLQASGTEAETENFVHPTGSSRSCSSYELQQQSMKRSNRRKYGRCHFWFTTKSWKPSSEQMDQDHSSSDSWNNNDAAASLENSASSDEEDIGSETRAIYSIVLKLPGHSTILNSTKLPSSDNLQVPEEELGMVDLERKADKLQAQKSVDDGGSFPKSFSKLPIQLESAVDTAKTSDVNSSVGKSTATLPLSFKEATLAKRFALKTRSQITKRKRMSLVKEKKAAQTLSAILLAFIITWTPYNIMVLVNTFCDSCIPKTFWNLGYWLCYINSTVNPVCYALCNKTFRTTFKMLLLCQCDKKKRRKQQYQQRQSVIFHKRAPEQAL

Structure (SMILES)	IC50 (M3 binding IC50) [nM]	also measured
C[N+]12CCC(CC1)[C@@H](OC(=O)C1(c3ccccc3)CCCC1)C2 [Comparative Example 2, (3R)-1-Methyl-3-{[(1-phenylcyclopentyl)carbonyl]oxy}-1-azoniabicyclo[2.2.2]octane Iodide, reference compound]	–	IC50 (pIC50 of comparative compounds containing a cyclopentyl (C5) ring in place of cycloheptyl (C7)): 39.8 nM
C[N+]12CCC(CC1)[C@@H](OC(=O)C1(c3ccccc3)CCCCCC1)C2 [Example 2, (3R)-1-Methyl-3-{[(1-phenylcycloheptyl)carbonyl]oxy}-1-azoniabicyclo[2.2.2]octane Iodide]	2 to 10	IC50 (pIC50): 3.16 nM; IC50 (pIC50 of cycloheptyl (C7) compound): 3.16 nM
O=C(O[C@H]1C[N+]2(CCCOc3ccccc3)CCC1CC2)C1(c2ccccc2)CCCCCC1 [Example 3, (3R)-1-(3-Phenoxypropyl)-3-{[(1-phenylcycloheptyl)carbonyl]oxy}-1-azoniabicyclo[2.2.2]octane Bromide]	< 2	IC50 (pIC50): 0.0501 nM
O=C(C[N+]12CCC(CC1)[C@@H](OC(=O)C1(c3ccccc3)CCCCCC1)C2)Nc1ccon1 [Example 4, (3R)-1-[2-(Isoxazol-3-ylamino)-2-oxoethyl]-3-{[(1-phenylcycloheptyl)carbonyl]oxy}-1-azoniabicyclo[2.2.2]octane Bromide]	< 2	IC50 (pIC50): 0.0631 nM
O=C(O[C@H]1C[N+]2(Cc3ccc(F)cc3)CCC1CC2)C1(c2ccccc2)CCCCCC1 [Example 5, (3R)-1-(4-Fluorobenzyl)-3-{[(1-phenylcycloheptyl)carbonyl]oxy}-1-azoniabicyclo[2.2.2]octane Bromide]	> 10	–
O=C(O[C@H]1C[N+]2(Cc3ccccc3)CCC1CC2)C1(c2ccccc2)CCCCCC1 [Example 6, (3R)-1-Benzyl-3-{[(1-phenylcycloheptyl)carbonyl]oxy}-1-azoniabicyclo[2.2.2]octane Bromide]	> 10	–
O=C(O[C@H]1C[N+]2(Cc3cccc(OC(F)(F)F)c3)CCC1CC2)C1(c2ccccc2)CCCCCC1 [Example 7, (3R)-3-{[(1-Phenylcycloheptyl)carbonyl]oxy}-1-[3-(trifluoromethoxy)benzyl]-1-azoniabicyclo[2.2.2]octane Bromide]	> 10	–
O=C(O[C@H]1C[N+]2(Cc3ccc(F)c(F)c3)CCC1CC2)C1(c2ccccc2)CCCCCC1 [Example 8, (3R)-1-(3,4-Difluorobenzyl)-3-{[(1-phenylcycloheptyl)carbonyl]oxy}-1-azoniabicyclo[2.2.2]octane Bromide]	> 10	–
O=C(O[C@H]1C[N+]2(Cc3ccc(C(F)(F)F)o3)CCC1CC2)C1(c2ccccc2)CCCCCC1 [Example 9, (3R)-3-{[(1-Phenylcycloheptyl)carbonyl]oxy}-1-{[5-(trifluoromethyl)-2-furyl]methyl}-1-azoniabicyclo[2.2.2]octane Bromide]	> 10	–
COc1cccc(C[N+]23CCC(CC2)[C@@H](OC(=O)C2(c4ccccc4)CCCCCC2)C3)c1 [Example 10, (3R)-1-(3-Methoxybenzyl)-3-{[(1-phenylcycloheptyl)carbonyl]oxy}-1-azoniabicyclo[2.2.2]octane Bromide]	2 to 10	IC50 (pIC50): 3.16 nM
O=C(O[C@H]1C[N+]2(CCOc3ccccc3)CCC1CC2)C1(c2ccccc2)CCCCCC1 [Example 11, (3R)-1-(2-Phenoxyethyl)-3-{[(1-phenylcycloheptyl)carbonyl]oxy}-1-azoniabicyclo[2.2.2]octane bromide]	< 2	–
O=C(O[C@H]1C[N+]2(CCOCc3ccccc3)CCC1CC2)C1(c2ccccc2)CCCCCC1 [Example 12, (3R)-1-[2-(Benzyloxy)ethyl]-3-{[(1-phenylcycloheptyl)carbonyl]oxy}-1-azoniabicyclo[2.2.2]octane Bromide]	< 2	–
O=C(C[N+]12CCC(CC1)[C@@H](OC(=O)C1(c3cccs3)CCCCCC1)C2)Nc1ccon1 [Example 13, (3R)-1-[2-(Isoxazol-3-ylamino)-2-oxoethyl]-3-({[1-(2-thienyl)cycloheptyl]carbonyl}oxy)-1-azoniabicyclo[2.2.2]octane Bromide]	< 2	–
O=C(C[N+]12CCC(CC1)[C@@H](OC(=O)C1(c3ccccc3)CCCCCC1)C2)N1CCCC1 [Example 14, (3R)-1-(2-Oxo-2-pyrrolidin-1-ylethyl)-3-{[(1-phenylcycloheptyl)carbonyl]oxy}-1-azoniabicyclo[2.2.2]octane Bromide]	2 to 10	–
O=C(C[N+]12CCC(CC1)[C@@H](OC(=O)C1(c3ccccc3)CCCCCC1)C2)N1CCOCC1 [Example 15, (3R)-1-(2-Morpholin-4-yl-2-oxoethyl)-3-{[(1-phenylcycloheptyl)carbonyl]oxy}-1-azoniabicyclo[2.2.2]octane Bromide]	2 to 10	–
O=C(C[N+]12CCC(CC1)[C@@H](OC(=O)C1(c3ccccc3)CCCCCC1)C2)Nc1cccnn1 [Example 17, (3R)-1-[2-Oxo-2-(pyridazin-3-ylamino)ethyl]-3-{[(1-phenylcycloheptyl)carbonyl]oxy}-1-azoniabicyclo[2.2.2]octane Bromide]	< 2	–

Structure (SMILES)	IC50 (M3 binding IC50) [nM]	also measured
O=C(C[N+]12CCC(CC1)[C@@H](OC(=O)C1(c3ccccc3)CCCCCC1)C2)NCCOc1ccccc1 [Example 18, (3R)-1-{2-Oxo-2-[(2-phenoxyethyl)amino]ethyl}-3-{[(1-phenylcycloheptyl)carbonyl]oxy}-1-azoniabicyclo[2.2.2]octane Bromide]	< 2	–
O=C(C[N+]12CCC(CC1)[C@@H](OC(=O)C1(c3ccccc3)CCCCCC1)C2)c1cccc(F)c1 [Example 19, (3R)-1-[2-(3-Fluorophenyl)-2-oxoethyl]-3-{[(1-phenylcycloheptyl)carbonyl]oxy}-1-azoniabicyclo[2.2.2]octane Bromide]	< 2	–
Cc1cc(NC(=O)C[N+]23CCC(CC2)[C@@H](OC(=O)C2(c4ccccc4)CCCCCC2)C3)no1 [Example 20, (3R)-1-{2-[(5-Methylisoxazol-3-yl)amino]-2-oxoethyl}-3-{[(1-phenylcycloheptyl)carbonyl]oxy}-1-azoniabicyclo[2.2.2]octane Bromide]	< 2	–
O=C(C[N+]12CCC(CC1)[C@@H](OC(=O)C1(c3ccccc3)CCCCCC1)C2)Nc1ccc(Cl)nn1 [Example 21, (3R)-1-{2-[(6-Chloropyridazin-3-yl)amino]-2-oxoethyl}-3-{[(1-phenylcycloheptyl)carbonyl]oxy}-1-azoniabicyclo[2.2.2]octane Bromide]	< 2	–
O=C(C[N+]12CCC(CC1)[C@@H](OC(=O)C1(c3ccccc3)CCCCCC1)C2)Nc1cccc(F)c1 [Example 22, (3R)-1-{2-[(3-Fluorophenyl)amino]-2-oxoethyl}-3-{[(1-phenylcycloheptyl)carbonyl]oxy}-1-azoniabicyclo[2.2.2]octane Bromide]	< 2	–
O=C(O[C@H]1C[N+]2(CCc3ccc4ccccc4c3)CCC1CC2)C1(c2ccccc2)CCCCCC1 [Example 23, (3R)-1-[2-(2-Naphthyl)ethyl]-3-{[(1-phenylcycloheptyl)carbonyl]oxy}-1-azoniabicyclo[2.2.2]octane Bromide]	< 2	–
COc1cccc(CC[N+]23CCC(CC2)[C@@H](OC(=O)C2(c4ccccc4)CCCCCC2)C3)c1 [Example 24, (3R)-1-[2-(3-Methoxyphenyl)ethyl]-3-{[(1-phenylcycloheptyl)carbonyl]oxy}-1-azoniabicyclo[2.2.2]octane Bromide]	< 2	–
Cc1ccc(CC[N+]23CCC(CC2)[C@@H](OC(=O)C2(c4ccccc4)CCCCCC2)C3)s1 [Example 25, (3R)-1-[2-(5-Methyl-2-thienyl)ethyl]-3-{[(1-phenylcycloheptyl)carbonyl]oxy}-1-azoniabicyclo[2.2.2]octane Bromide]	< 2	–
O=C(O[C@H]1C[N+]2(CCc3ccccc3)CCC1CC2)C1(c2ccccc2)CCCCCC1 [Example 26, (3R)-3-{[(1-Phenylcycloheptyl)carbonyl]oxy}-1-(2-phenylethyl)-1-azoniabicyclo[2.2.2]octane Bromide]	< 2	–
O=C(O[C@H]1C[N+]2(CCc3cccc(C(F)(F)F)c3)CCC1CC2)C1(c2ccccc2)CCCCCC1 [Example 27, (3R)-3-{[(1-Phenylcycloheptyl)carbonyl]oxy}-1-{2-[3-(trifluoromethyl)phenyl]ethyl}-1-azoniabicyclo[2.2.2]octane Bromide]	< 2	–
O=C(O[C@H]1C[N+]2(CCc3ccc4c(c3)OCO4)CCC1CC2)C1(c2ccccc2)CCCCCC1 [Example 28, (3R)-1-[2-(1,3-Benzodioxol-5-yl)ethyl]-3-{[(1-phenylcycloheptyl)carbonyl]oxy}-1-azoniabicyclo[2.2.2]octane bBromide]	< 2	–
N#Cc1ccc(CC[N+]23CCC(CC2)[C@@H](OC(=O)C2(c4ccccc4)CCCCCC2)C3)cc1 [Example 29, (3R)-1-[2-(4-Cyanophenyl)ethyl]-3-{[(1-phenylcycloheptyl)carbonyl]oxy}-1-azoniabicyclo[2.2.2]octane Bromide]	2 to 10	–
O=C1c2ccccc2C(=O)N1CC[N+]12CCC(CC1)[C@@H](OC(=O)C1(c3ccccc3)CCCCCC1)C2 [Example 30, (3R)-1-[2-(1,3-Dioxo-1,3-dihydro-2H-isoindol-2-yl)ethyl]-3-{[(1-phenylcycloheptyl)carbonyl]oxy}-1-azoniabicyclo[2.2.2]octane Bromide]	> 10	–
O=C(C[N+]12CCC(CC1)[C@@H](OC(=O)C1(c3ccccc3)CCCCCC1)C2)Nc1cncc(Cl)n1 [Example 31, (3R)-1-{2-[(6-Chloropyrazin-2-yl)amino]-2-oxoethyl}-3-{[(1-phenylcycloheptyl)carbonyl]oxy}-1-azoniabicyclo[2.2.2]octane Bromide]	< 2	–
O=C(O[C@H]1C[N+]2(CC3(c4ccc(Cl)cc4)CC3)CCC1CC2)C1(c2ccccc2)CCCCCC1 [Example 32, (3R^5)-1-{[1-(4-Chlorophenyl)cyclopropyl]methyl}-3-{[(1-phenylcycloheptyl)carbonyl]oxy}-1-azoniabicyclo[2.2.2]octane Bromide]	2 to 10	–
Cc1cnc(NC(=O)C[N+]23CCC(CC2)[C@@H](OC(=O)C2(c4ccccc4)CCCCCC2)C3)cn1 [Example 33, (3R)-1-{2-[(5-Methylpyrazin-2-yl)amino]-2-oxoethyl}-3-{[(1-phenylcycloheptyl)carbonyl]oxy}-1-azoniabicyclo[2.2.2]octane Bromide]	< 2	–
